Source: patent US20080118553A1, “Tannate salt form of polypeptide mixtures, their preparation and use” (priority 2006, published 2008)

Tested on: splenocytes (glatiramer specific T cells)
Experiment: Ex-vivo testing in CJSL mice: cytokine secretion by splenocytes activated in vitro with GA RS after daily feeding
Parameters: key: BQL: Below Quantifiable Limit; BDL: Below Detectable Limit; AQL: Above Quantifiable Limit
Conditions: 50 μg/ml GA RS in-vitro
Method: Studies were conducted to test the potential properties of the mixture of polypeptides of the invention. In particular, the studies were to determine whether the mixture of polypeptides of the invention would elicit an immune response with similar cytokine patterns as those elicited by glatiramer acetate when tested in an ex-vivo model in mice.
Beginning on Day 0, groups of 4 CJSL Mice were fed daily with GA reference standard (GA RS, 12.5 μg/kg). Glatiramer Tannate (amount equivalent to 18.75 μg/kg), tannic acid (negative control, in an amount equivalent to the tannate administered to the 18.75 μg/kg glatiramer tannate group) or phosphate buffered saline (PBS—placebo control). During period of study, subsets of mice in each treatment group were sacrificed on days 4, 7 and 11. Spleens were excised and primary cell cultures were prepared. The effect of the treatment was tested by in-vitro activation of splenocytes with GA RS 50 μg/ml. The response of the cells to the challenge is a measure of previous exposure to Glatiramer and the generation of glatiramer specific T cells. T-cell response was monitored by detection of cytokines secreted from activated cells by ELISA analysis. The levels of IL-2, IL-3 and IL-5 cytokines were examined.

[1] = glatiramer dose NA (tannic acid equivalent to the tannate of the 18.75 group) daily oral, day of treatment 4
[2] = glatiramer dose NA (tannic acid equivalent to the tannate of the 18.75 group) daily oral, day of treatment 7
[3] = glatiramer dose NA (tannic acid equivalent to the tannate of the 18.75 group) daily oral, day of treatment 11
[4] = glatiramer treatment dose 12.5 Mg/kg daily oral, day of treatment 4
[5] = glatiramer treatment dose 12.5 Mg/kg daily oral, day of treatment 7
[6] = glatiramer treatment dose 12.5 Mg/kg daily oral, day of treatment 11

For `O=C(OC[C@H]1O[C@@H](OC(=O)c2cc(O)c(O)c(OC(=O)c3cc(O)c(O)c(O)c3)c2)[C@H](OC(=O)c2cc(O)c(O)c(OC(=O)c3cc(O)c(O)c(O)c3)c2)[C@@H](OC(=O)c2cc(O)c(O)c(OC(=O)c3cc(O)c(O)c(O)c3)c2)[C@@H]1OC(=O)c1cc(O)c(O)c(OC(=O)c2cc(O)c(O)c(O)c2)c1)c1cc(O)c(O)c(OC(=O)c2cc(O)c(O)c(O)c2)c1` [Tannic Acid, tannic acid], the IL-2 secretion [1] was “BQL”, the IL-3 secretion [1] was “BQL” and the IL-5 secretion [1] was “BDL”. The IL-2 secretion [2] was 26.7 pg/mL, the IL-3 secretion [2] was 76.9 pg/mL and the IL-5 secretion [2] was “BQL”. The IL-2 secretion [3] was 16.6 pg/mL, the IL-3 secretion [3] was 63.2 pg/mL and the IL-5 secretion [3] was “BQL”.

In the case of “L-glutamic acid polymer with L-alanine, L-lysine and L-tyrosine, acetate (salt) [GA]”, the IL-2 secretion [4] was “BQL”, the IL-3 secretion [4] was “BQL” and the IL-5 secretion [4] was “BDL”. For the same molecule, the IL-2 secretion [5] was 121.5 pg/mL, the IL-3 secretion [5] was 456.5 pg/mL and the IL-5 secretion [5] was “BQL”. For the same molecule, the IL-2 secretion [6] was 119.0 pg/mL, the IL-3 secretion [6] was 701.6 pg/mL and the IL-5 secretion [6] was “BQL”.
